Source: ChEMBL document CHEMBL1201862, “PubChem BioAssay data set” (2004)
Active and inactive are the calls of the source.

Tests used:
[1] = target: Nucleotide-binding oligomerization domain-containing protein 1 (Homo sapiens, UniProt Q9Y239); assay: NOD1 signaling inhibitors, SAR follow-up, revised (AID 2333); assay type: functional
[2] = target: T1, Heat shock factor protein 1 (Mus musculus, UniProt P38532); assay: inhibition of MG132-induced HSE-luciferase signal, confirmation, cell-based, NIH3T3, luminescence, dose retest (AID 2382); assay type: functional;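 further: NIH3T3 fibroblasts with HSF1-driven luciferase reporter stressed by proteasome inhibitor MG132; luminescence from HSF1-driven luciferase expression after 8 hours of MG132 stress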
T1 sequence (P38532 whole entry): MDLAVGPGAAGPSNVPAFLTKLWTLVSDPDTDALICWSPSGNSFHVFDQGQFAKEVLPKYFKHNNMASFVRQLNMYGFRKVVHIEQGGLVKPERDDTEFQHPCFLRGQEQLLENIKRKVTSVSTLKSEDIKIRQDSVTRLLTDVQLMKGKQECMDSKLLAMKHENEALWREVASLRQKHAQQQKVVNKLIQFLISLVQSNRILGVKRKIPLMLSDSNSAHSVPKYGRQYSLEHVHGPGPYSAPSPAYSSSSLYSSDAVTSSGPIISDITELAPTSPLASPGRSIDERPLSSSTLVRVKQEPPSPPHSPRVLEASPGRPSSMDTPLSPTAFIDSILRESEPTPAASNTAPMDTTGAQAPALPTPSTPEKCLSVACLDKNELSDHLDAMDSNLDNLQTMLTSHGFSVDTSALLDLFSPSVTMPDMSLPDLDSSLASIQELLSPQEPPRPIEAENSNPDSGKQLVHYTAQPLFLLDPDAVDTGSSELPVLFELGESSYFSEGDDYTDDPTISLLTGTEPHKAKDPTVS

[3] = Luminescence-based counterscreen assay for KLF5 inhibitors: dose response cell-based high throughput screening assay to identify cytotoxic compounds using the IEC-6 intestinal epithelial cell line. [Related pubchem assays: 1700 (Primary screen.), 1834 (Confirmation screen.), 1858 (Summary AID.), 1905 (Counterscreen.)]; assay type: functional
Tumor necrosis factor = Tumor necrosis factor (Homo sapiens, UniProt P01375); assay: TNFa-triggered NF-kB activation inhibitors, SAR follow-up, cell-based, revised (AID 2337); assay type: functional
[4] = target: T2, COUP transcription factor 2 (Homo sapiens, UniProt P24468); assay: Luminescence-based cell-based high throughput dose response assay to identify inhibitors of COUP-TFII (NR2F2).; assay type: functional;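 further: HEK293 cells transiently cotransfected with COUP-TFII expression vector and reporter; luciferase reporter luminescence driven by COUP-TFII from the pX2-168 reporter plasmid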
T2 sequence (P24468 whole entry): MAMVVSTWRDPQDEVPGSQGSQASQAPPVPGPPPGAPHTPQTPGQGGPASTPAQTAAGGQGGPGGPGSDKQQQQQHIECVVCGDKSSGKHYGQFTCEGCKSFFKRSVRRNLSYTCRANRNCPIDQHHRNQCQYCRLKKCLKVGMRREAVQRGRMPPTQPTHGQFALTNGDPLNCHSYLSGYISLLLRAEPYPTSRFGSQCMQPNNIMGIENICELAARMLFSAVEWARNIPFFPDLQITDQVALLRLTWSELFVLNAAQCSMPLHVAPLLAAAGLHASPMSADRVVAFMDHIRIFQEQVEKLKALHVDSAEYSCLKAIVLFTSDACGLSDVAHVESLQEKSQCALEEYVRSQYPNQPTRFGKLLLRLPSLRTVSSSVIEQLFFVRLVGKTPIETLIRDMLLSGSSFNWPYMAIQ

[5] = target: T3, Induced myeloid leukemia cell differentiation protein Mcl-1 (Homo sapiens, UniProt Q07820); assay type: functional
HEK293 = assay: cells; settings: Homo sapiens;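 further: cells exposed to compound for 14 hours overnight before viability readout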
[6] = target: T4, Small ubiquitin-related modifier 2 (Homo sapiens, UniProt P61956); assay: SUMO2–SIM peptide binding inhibitors, dose response, selectivity assay for SUMO1 interaction inhibitor project, biochemical, fluorescence polarization, uHTS hits (AID 624385); assay type: functional; settings: read-out: IC50_Mean
Bcl-2-like protein 1 = Bcl-2-like protein 1 (Homo sapiens, UniProt Q07817); assay: BCL-XL inhibitors, dose response, selectivity assay for MCL1 inhibitor project, biochemical, fluorescence polarization, 1536-well (AID 2218)
[7] = target: T5, Small ubiquitin-related modifier 1 (Homo sapiens, UniProt P63165); assay: inhibitors of SUMO1 partner interactions, dose response, biochemical, FRET (AID 624383); assay type: functional; settings: read-out: IC50_Mean
[8] = target: T6, Tyrosine-protein phosphatase non-receptor type 22 (Homo sapiens, UniProt Q9Y2R2); assay type: functional
T6 sequence (Q9Y2R2 whole entry): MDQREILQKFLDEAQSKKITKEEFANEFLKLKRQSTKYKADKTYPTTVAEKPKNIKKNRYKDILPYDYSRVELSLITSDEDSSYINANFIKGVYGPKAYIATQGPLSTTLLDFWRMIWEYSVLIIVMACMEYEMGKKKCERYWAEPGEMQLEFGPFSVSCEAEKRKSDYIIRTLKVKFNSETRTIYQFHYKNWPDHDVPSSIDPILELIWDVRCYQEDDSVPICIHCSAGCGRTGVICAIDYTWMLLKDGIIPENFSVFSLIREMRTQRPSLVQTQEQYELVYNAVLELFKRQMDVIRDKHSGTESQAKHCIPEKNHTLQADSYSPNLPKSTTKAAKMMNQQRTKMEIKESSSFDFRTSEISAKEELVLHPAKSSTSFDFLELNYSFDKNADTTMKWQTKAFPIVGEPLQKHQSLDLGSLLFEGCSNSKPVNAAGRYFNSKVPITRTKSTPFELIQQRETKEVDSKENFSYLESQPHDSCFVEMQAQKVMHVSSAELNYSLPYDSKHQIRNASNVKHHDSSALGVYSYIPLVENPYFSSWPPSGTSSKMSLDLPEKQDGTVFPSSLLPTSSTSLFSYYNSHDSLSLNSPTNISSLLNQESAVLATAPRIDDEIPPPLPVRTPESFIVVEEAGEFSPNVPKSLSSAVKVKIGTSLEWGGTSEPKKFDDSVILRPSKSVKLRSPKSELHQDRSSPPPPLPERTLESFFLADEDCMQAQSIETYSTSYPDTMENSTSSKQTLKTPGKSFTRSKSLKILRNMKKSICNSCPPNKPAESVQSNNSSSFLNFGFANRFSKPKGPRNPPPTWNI

[9] = target: T6, Tyrosine-protein phosphatase non-receptor type 22; assay: LYP1 Fluorescent Assay using OMFP substrate for In Vitro dose response studies. [Related pubchem assays (depositor defined):AID1779, AID1784, AID435024]
[10] = target: T3, Induced myeloid leukemia cell differentiation protein Mcl-1; assay: MCL1-BIM BH3 interaction inhibitors, dose response, biochemical, fluorescence polarization, BIM-BH3 peptide, 1536-well (AID 2217)
[11] = target: T6, Tyrosine-protein phosphatase non-receptor type 22; assay: SAR LYP1 Fluorescent Assay using OMFP substrate for In Vitro dose response studies - Set 2. [Related pubchem assays (depositor defined):AID1779, AID1784, AID2140, AID449726, AID488869]; assay type: functional
[12] = target: Tyrosine-protein phosphatase non-receptor type 12 (Homo sapiens, UniProt Q05209); assay: SAR Selectivity Analysis of small molecule inhibitors of PEST using pCAP in a fluorescence assay. [Related pubchem assays (depositor defined):AID1779, AID1784, AID2135]; assay type: functional
[13] = target: T7, Tyrosine-protein phosphatase non-receptor type 7 (Homo sapiens, UniProt P35236); assay: HTS HePTP Fluorescent Assay using OMFP substrate for In Vitro dose response studies. [Related pubchem assays (depositor defined):AID1059, AID1077, AID1784, AID2068, AID2085, AID435032, AID521]; assay type: functional
T7 sequence (P35236 whole entry): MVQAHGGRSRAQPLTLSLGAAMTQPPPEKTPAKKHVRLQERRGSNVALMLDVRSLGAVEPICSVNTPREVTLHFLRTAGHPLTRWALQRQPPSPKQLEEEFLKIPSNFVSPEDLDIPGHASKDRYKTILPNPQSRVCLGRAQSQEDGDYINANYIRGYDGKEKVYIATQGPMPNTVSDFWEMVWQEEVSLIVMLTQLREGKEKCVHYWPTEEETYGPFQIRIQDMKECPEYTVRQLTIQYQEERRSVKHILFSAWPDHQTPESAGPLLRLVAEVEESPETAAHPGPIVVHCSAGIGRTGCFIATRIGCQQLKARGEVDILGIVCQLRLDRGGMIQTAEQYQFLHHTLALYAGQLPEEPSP

[14] = target: T6, Tyrosine-protein phosphatase non-receptor type 22; assay: SAR LYP1 Fluorescent Assay using pCAP substrate for In Vitro dose response studies - Set 2. [Related pubchem assays (depositor defined):AID1779, AID1784, AID2135, AID449727]; assay type: functional
[15] = target: T6, Tyrosine-protein phosphatase non-receptor type 22; assay: inhibitors of LYP phosphatase, biochemical, fluorescence intensity, uHTS (AID 1779)
[16] = target: T6, Tyrosine-protein phosphatase non-receptor type 22; assay type: functional; remark: listed apart in the source
[17] = target: T4, Small ubiquitin-related modifier 2; assay: inhibitors of SUMO2 protein-protein interaction, dose response, selectivity assay for SUMO1 interaction inhibitor project, biochemical, FRET, human SUMO2, uHTS hits (AID 624384); assay type: functional; settings: read-out: IC50_Mean
SUMO E1/E2 = SUMO E1/E2 (Homo sapiens, UniProt P63279+Q9UBE0+Q9UBT2); assay: SAR analysis of SUMOylation using HTRF in an in-Vitro dose response assay. [Related pubchem assays (depositor defined):AID2006, AID2011, AID2018, AID2069, AID2658]; assay type: functional
[18] = target: Eukaryotic translation initiation factor 4E (Mus musculus, UniProt P63073); assay: eIF4E–eIF4G protein interaction inhibitors, dose response, biochemical, TR-FRET (AID 855); assay type: functional;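 further: potency for disrupting eIF4E binding to eIF4GI seen as loss of FRET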
[19] = target: T6, Tyrosine-protein phosphatase non-receptor type 22; assay: PubChem AID 2135
Nonstructural protein 1 = Nonstructural protein 1 (Influenza A virus, UniProt Q194T2); assay type: functional, Influenza A virus (A/California/07/2009(H1N1))
[20] = target: Envelope glycoprotein gp160 (Human immunodeficiency virus 1, UniProt Q6QLK5); assay: inhibitors of HIV fusion peptide binding, primary screen, biochemical, uHTS, fluorescence dequenching (AID 1986)
Genome polyprotein = Genome polyprotein (dengue virus type 2, UniProt P29990); assay: Dengue-2 NS5 methyltransferase inhibitors, primary screen, biochemical, confirmation dose response (AID 588689); assay type: functional
[21] = target: T7, Tyrosine-protein phosphatase non-receptor type 7; assay type: functional
[22] = target: T6, Tyrosine-protein phosphatase non-receptor type 22; assay: PubChem AID 2140
[23] = target: T7, Tyrosine-protein phosphatase non-receptor type 7; assay: HePTP (PTPN7) phosphatase inhibitor potency, SAR follow-up, biochemical, set 2 (AID 449736); assay type: functional
[24] = target: T5, Small ubiquitin-related modifier 1; assay: inhibitors of SUMO1 peptide binding, dose response, biochemical, fluorescence polarization, uHTS hits (AID 624382); assay type: functional; settings: read-out: IC50_Mean
[25] = target: T6, Tyrosine-protein phosphatase non-receptor type 22; assay: SAR LYP1 Fluorescent Assay using OMFP substrate for In Vitro dose response studies - Set 3. [Related pubchem assays (depositor defined):AID1779, AID1784, AID2140, AID2686]; assay type: functional

T3 sequence (Q07820 whole entry): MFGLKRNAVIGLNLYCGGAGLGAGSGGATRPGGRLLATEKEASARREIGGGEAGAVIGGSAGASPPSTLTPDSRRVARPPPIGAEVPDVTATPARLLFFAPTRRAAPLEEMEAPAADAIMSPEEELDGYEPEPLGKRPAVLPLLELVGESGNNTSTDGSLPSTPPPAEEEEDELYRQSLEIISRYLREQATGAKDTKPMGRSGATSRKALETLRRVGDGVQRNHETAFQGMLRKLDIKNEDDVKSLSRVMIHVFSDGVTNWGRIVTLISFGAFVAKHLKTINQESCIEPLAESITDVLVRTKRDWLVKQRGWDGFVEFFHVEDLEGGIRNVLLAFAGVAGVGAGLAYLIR
T5 sequence (P63165 whole entry): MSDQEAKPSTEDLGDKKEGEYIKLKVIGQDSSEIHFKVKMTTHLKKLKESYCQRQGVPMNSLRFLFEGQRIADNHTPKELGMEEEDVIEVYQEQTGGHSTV
T4 sequence (P61956 whole entry): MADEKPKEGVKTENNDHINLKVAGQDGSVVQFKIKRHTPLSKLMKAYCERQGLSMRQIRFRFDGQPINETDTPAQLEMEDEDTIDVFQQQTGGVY
Nucleotide-binding oligomerization domain-containing protein 1, sequence (Q9Y239 whole entry, the tested form may be a part): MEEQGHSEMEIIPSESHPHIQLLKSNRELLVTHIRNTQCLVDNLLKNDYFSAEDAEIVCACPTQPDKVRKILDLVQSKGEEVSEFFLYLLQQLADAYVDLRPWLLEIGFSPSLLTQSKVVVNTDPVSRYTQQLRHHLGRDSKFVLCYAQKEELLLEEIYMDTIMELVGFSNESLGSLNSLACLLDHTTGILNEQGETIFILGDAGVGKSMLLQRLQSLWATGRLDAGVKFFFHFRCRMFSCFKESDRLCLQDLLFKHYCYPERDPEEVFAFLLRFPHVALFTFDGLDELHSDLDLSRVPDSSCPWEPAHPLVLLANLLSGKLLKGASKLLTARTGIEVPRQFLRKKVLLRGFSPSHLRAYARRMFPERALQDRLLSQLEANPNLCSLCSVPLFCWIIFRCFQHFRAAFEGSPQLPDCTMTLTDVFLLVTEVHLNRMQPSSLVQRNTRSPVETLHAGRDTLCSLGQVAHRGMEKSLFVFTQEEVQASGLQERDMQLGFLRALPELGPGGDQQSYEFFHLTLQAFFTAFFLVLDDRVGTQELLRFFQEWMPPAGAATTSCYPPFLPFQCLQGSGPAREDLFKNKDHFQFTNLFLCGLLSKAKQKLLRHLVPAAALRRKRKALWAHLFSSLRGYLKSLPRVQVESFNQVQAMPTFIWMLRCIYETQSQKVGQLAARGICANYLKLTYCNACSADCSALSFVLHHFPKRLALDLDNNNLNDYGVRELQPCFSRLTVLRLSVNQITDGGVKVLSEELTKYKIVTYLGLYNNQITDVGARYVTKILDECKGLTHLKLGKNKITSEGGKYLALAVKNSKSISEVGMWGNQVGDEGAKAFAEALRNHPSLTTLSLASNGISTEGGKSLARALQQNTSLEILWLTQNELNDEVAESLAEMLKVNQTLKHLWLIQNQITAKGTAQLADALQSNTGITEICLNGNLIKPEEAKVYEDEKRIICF
Envelope glycoprotein gp160, sequence (Q6QLK5 whole entry, the tested form may be a part): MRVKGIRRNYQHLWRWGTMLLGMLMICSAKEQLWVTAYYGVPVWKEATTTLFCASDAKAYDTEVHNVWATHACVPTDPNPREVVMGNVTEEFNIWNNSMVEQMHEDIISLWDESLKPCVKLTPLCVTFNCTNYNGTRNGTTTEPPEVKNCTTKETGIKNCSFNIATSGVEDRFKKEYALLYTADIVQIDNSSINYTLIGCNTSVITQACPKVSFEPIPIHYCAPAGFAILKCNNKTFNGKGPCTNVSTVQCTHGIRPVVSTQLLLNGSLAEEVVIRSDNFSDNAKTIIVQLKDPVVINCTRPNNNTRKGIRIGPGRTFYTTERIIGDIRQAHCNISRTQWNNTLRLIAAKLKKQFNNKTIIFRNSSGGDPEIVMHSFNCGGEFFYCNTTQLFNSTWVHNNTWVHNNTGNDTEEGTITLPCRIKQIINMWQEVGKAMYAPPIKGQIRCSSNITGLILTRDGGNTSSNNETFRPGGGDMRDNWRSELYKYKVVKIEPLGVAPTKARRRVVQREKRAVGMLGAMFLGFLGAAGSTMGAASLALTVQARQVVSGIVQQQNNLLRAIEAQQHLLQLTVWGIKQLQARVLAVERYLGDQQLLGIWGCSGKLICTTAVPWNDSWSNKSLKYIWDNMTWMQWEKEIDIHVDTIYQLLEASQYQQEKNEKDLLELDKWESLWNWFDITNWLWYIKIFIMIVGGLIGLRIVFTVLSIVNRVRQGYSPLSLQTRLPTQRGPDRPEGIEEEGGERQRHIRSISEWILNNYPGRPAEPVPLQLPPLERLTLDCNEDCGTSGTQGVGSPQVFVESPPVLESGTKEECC
Tumor necrosis factor, sequence (P01375 whole entry): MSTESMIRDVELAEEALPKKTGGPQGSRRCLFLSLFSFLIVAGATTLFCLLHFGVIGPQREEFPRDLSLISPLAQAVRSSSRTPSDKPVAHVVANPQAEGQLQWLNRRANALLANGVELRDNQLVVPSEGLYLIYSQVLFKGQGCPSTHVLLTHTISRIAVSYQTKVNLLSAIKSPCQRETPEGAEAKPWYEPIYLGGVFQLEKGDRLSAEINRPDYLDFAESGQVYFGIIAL
Genome polyprotein, sequence (P29990 2492-3391 limits assumed): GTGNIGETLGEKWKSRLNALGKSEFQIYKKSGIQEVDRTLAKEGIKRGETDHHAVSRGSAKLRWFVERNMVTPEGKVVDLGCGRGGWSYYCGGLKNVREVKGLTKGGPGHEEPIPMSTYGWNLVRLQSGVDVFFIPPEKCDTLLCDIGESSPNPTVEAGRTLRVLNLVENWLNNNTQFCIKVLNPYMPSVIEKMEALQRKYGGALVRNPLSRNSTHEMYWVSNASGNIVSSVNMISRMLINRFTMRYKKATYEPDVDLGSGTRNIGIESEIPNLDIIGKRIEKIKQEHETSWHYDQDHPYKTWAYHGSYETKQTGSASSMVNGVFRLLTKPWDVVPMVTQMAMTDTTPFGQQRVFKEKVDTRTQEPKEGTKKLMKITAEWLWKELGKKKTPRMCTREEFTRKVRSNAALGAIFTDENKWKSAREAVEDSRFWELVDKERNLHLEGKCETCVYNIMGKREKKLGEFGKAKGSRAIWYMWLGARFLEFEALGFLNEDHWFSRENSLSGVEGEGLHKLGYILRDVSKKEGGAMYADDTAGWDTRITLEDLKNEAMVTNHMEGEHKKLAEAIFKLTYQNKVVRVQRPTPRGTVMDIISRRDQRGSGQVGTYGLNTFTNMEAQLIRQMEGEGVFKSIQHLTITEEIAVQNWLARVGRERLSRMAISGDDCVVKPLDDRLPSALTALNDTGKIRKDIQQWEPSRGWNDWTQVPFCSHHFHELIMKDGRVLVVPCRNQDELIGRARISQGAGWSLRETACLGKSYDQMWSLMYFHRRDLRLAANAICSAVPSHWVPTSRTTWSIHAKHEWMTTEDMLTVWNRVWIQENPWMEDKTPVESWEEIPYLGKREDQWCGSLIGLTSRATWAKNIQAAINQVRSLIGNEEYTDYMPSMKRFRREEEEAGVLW
Tyrosine-protein phosphatase non-receptor type 12, sequence (Q05209 whole entry): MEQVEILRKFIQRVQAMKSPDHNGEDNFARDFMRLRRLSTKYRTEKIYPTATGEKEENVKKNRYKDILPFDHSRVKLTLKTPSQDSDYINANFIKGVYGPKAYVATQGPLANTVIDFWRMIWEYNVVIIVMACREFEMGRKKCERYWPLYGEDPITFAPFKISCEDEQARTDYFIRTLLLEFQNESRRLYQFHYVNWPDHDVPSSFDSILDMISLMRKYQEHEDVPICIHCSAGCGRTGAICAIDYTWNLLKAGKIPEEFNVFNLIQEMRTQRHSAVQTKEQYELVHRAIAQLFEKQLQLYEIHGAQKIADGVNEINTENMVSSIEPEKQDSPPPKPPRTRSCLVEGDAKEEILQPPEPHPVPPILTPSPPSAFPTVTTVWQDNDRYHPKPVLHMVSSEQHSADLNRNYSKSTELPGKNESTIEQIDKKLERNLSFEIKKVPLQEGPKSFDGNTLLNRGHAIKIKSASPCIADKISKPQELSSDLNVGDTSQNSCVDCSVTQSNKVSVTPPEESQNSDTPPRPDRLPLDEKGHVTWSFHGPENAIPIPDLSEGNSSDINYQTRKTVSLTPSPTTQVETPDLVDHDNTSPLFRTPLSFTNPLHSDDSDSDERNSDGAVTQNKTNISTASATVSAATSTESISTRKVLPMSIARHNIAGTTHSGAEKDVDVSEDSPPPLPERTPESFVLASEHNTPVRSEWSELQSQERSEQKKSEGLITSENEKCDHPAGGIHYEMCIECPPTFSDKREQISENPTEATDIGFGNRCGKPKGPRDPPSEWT
Eukaryotic translation initiation factor 4E, sequence (P63073 whole entry): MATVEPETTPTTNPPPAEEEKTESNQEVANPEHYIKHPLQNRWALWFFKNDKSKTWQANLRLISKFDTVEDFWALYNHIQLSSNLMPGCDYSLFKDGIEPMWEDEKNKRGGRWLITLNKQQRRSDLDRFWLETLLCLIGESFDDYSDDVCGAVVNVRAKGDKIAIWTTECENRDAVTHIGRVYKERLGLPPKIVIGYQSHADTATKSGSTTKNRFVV
Bcl-2-like protein 1, sequence (Q07817 whole entry): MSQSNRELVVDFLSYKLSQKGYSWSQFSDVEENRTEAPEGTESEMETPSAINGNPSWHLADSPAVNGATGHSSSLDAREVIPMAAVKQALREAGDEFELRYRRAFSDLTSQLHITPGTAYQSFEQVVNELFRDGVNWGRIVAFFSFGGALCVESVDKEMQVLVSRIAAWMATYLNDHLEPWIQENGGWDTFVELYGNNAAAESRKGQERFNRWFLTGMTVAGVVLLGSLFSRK
Nonstructural protein 1, sequence (Q194T2 whole entry, the tested form may be a part): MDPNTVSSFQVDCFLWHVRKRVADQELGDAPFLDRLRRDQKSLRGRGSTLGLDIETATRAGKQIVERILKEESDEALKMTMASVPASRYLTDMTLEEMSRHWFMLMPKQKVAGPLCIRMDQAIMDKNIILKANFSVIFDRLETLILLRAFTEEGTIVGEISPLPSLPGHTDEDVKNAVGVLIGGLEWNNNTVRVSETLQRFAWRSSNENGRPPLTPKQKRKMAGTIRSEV

With `COC(=O)c1ccc2nc(Nc3nc4ccc(F)cc4s3)sc2c1` the IC50 [1] was 1.91 µM (active), the EC50 [2] was < 0.16 µM (active) and the IC50 [3] was > 39.8 µM (not active). For the same compound, the IC50 (Tumor necrosis factor) was 0.462 µM (active), the IC50 [4] was 34 µM (inactive) and the IC50 [5] was 1.11 µM (active). For the same compound, the IC50 (HEK293) was > 20 µM (inactive).

For `Cc1c(Cl)cccc1NS(=O)(=O)c1ccc2c(c1)C1C=CCC1C(c1ccc(C(=O)O)cc1)N2` (stereo unspecified), the IC50 [6] was 12.6 µM (active), the IC50 (Bcl-2-like protein 1) was 50.8 µM (not active) and the IC50 [7] was 23.6 µM (inactive). For the same compound, the IC50 [8] was 48.5 µM (active), the IC50 [9] was 39.9 µM (active) and the IC50 [10] was 6.54 µM (active). The IC50 [11] was 43.7 µM (active), the IC50 [12] was 2.36 µM (active) and the IC50 [13] was 37.5 µM (active). The IC50 [14] was 45 µM (active), the IC50 [15] was 20.8 µM (active) and the IC50 [16] was 19.6 µM (active). The IC50 [17] was 5.02 µM (active), the IC50 (SUMO E1/E2) was 26.9 µM (active) and the IC50 [18] was 14.2 µM (active). For the same compound, the IC50 [19] was > 100 µM (inactive), the IC50 (Nonstructural protein 1) was 82.4 µM (active) and the IC50 [20] was 5.02 µM (active). The IC50 (Genome polyprotein) was 62.2 µM (active), the IC50 [21] was 49.8 µM (active) and the IC50 [22] was 47.4 µM (active). For the same compound, the IC50 [23] was 3.93 µM (active), the IC50 [24] was 5.38 µM (active) and the IC50 [25] was 15.8 µM (active).
